Results from patent publication US8859232B2, “Genetically encoded photomanipulation of protein and peptide activity” (The University of North Carolina at Chapel Hill, priority 2009, dated 2014).

Tested on: MEF cells expressing mVenus-tagged PA-Rac1
Assay: Inhibitor studies: localized activation of PA-Rac1 in inhibitor-treated MEF cells
Type: cell-based, mouse
Details: Blebbistatin 1 μM, Y-27632 10 μM; for effect of inhibitor on PA-Rac1 light-induced protrusion: FIG. 6C; for effect of inhibitor on the ability of Rac1 to specify the direction of movement: FIG. 6D
Protocol: Inhibitor studies: MEF cells expressing mVenus-tagged PA-Rac1 were incubated with 1 μM myosin II inhibitor Blebbistatin, 1 μM MLCK inhibitor ML-7, or 10 μM ROCK inhibitor Y-27632 (Calbiochem). Cells underwent the cell shape changes previously described (Katsumi et al., J. Cell Biol. 158:153 (2002)) and then reached a stable state within 30 minutes. After this cells were irradiated with the 458 nm laser at a 10-μm spot to induce PA-Rac activation.
Protrusion/retraction analysis: Fluorescence images of MEF cells expressing mVenus-tagged PA-Rac1 and its mutants were masked based on intensity thresholding to produce binary images. Regions of protrusion were isolated by subtracting the binary image at a given time point from that at time 0. Conversely the binary images of retraction were obtained. Areas not part of protrusions or retractions, those that overlapped the time 0 image, were obtained by subtracting the above two images from that at time 0. Each binary image was assigned a different color: red=protrusion, blue=retraction, green=area overlapping with time 0, and white=background. These operations were carried out using MetaMorph software.
Polarity index calculation: To obtain the polarity index (cos θ) of the migrating MEF cells, X and Y coordinates were obtained for the centroid before movement (x0,y0), the centroid after movement (x1,y1), and for the center of the irradiation spot (x2,y2), using MetaMorph software. The cos and sin values of the angles were obtained using simple triangle calculations. First two angles were defined using an arbitrarily selected horizontal line θ1=angle between the arbitrary line and the line from (x0,y0) to (x1,y1), and θ2=angle between the arbitrary line and the line between (x0,y0) and (x2,y2). The cos used to characterize polarity (see FIG. 6) was obtained using the following formula: cos θ=cos(θ1−θ2)=cos θ1 cos θ2+sin θ1 sin θ2

Compound | effect of inhibitor on PA-Rac1 light-induced protrusion | effect of inhibitor on the ability of Rac1 to specify the direction of movement
Cc1ccc2c(c1)C(=O)C1(O)CCN(c3ccccc3)C1=N2 (stereo not shown) [Blebbistatin] | little effect | randomization of movement
C[C@@H](N)[C@H]1CC[C@H](C(=O)Nc2ccncc2)CC1 [Y-27632] | strongly reduced protrusion | little effect
